For assay [1], the system named is murine B16 melanoma cells. In words: Cell growth assay, murine B16 melanoma cells (CellTiter 96 Aqueous One, 48 h). Particulars: for suppression of the growth of B16 cells: P>0.05. The class given is cell-based. The method, then: (§1) Cultures of cells, seeded in 0.1 mL medium with a density of 1,500 DU145 cells/well or 1,200 B16 cells/well in a 96-well plate, were incubated for 24 h at 37° C. in a humidified atmosphere of 5% CO2. At 24 h, the medium was decanted from each well and replaced with 0.1 mL fresh medium containing different concentrations of the test agents. Incubation continued for additional 48 h (B16) or 72 h (DU145). Following a quick rinse with 0.1 mL Hank's Balanced Salt Solution (HBSS), the 48-h (B16) or 72-h (DU145) cell populations were determined by adding 20 μL of CellTiter 96® Aqueous One Solution (Promega, Madison, Wis.) to each well; plates were held in the dark at 37° C. for 2 h and then read with a Synergy HT multi-plate reader (Biotek Instruments, Inc., Winooski, Vt.) and analyzed using the Gen5™ software (Biotek Instruments, Inc.). Absorbances from wells containing cell-free medium were used as baselines and were deducted from those of other cell-containing wells. The IC50 value is the concentration of xanthorrhizol required to suppress the net increase in cell number by 50%.
(§2) One-way analysis of variance (ANOVA) and Kruskal-Wallis tests were performed to assess the differences between groups using Prism® 7.0 software (GraphPad Software Inc., San Diego, Calif.). Differences in means were analyzed by Dunnett's multiple comparison test unless specified otherwise. Values were mean±standard error of mean (SEM). Levels of significance were designated as P<0.05. […] The constant-ratio combination design of xanthorrhizol and d-δ-tocotrienol in our study allowed automated creation of the classic isobologram by using the CompuSyn software. CI values lower than 1 indicate synergistic effect of the agents (Tallarida 2006).
(§3) Murine B16 melanoma cells were cultured in Dulbecco's Modified Eagle's Medium (DMEM) supplemented with 10% FBS, 1% penicillin-streptomycin and 0.8% gentamicin. For optimal growth, cells were incubated at 37° C. in a humidified atmosphere of 5% CO2. d-δ-Tocotrienol and xanthorrhizol were pre-dissolved in ethyl alcohol. All treated cultures contained 0.1% (v/v) of ethyl alcohol.

Assay [2] concerns murine B16 melanoma cells. In words: Cell cycle analysis by flow cytometry (propidium iodide DNA content), B16 cells. The class given is cell-based. Particulars: 24-h; for percentage of cells at the G1 phase: mean±SEM, control 56.1±1.6%, no significant change. The method, then:
Cells were seeded in 25 cm^2 flasks (Becton Dickinson Labware, Franklin Lakes, N.J.) at 1×10^6 cells (B16) per flask with 3 mL medium/flask and incubated for 24 h. Medium was then decanted and cultures were replenished with fresh medium containing the test agents that had been dissolved in ethyl alcohol. Following an additional 24-h incubation, adherent cells were harvested by trypsinization and pelleted by low speed centrifugation at 500 g for 5 min. Cell pellets were gently fixed in 1 mL of 70% ethanol-PBS mixture at −20° C. overnight and washed with PBS before 5×10^5 cells were re-suspended in 500 μL of PBS containing freshly prepared propidium iodide and RNase A (Roche Diagnostics, Indianapolis, Ind.) and incubated at 37° C. in the dark for 30 min as described (Yeganehjoo, DeBose-Boyd et al. 2017). Aliquots of 200 μL of the stained cells were analyzed for DNA content using a BD LSR Fortessa flow cytometer (BD Biosciences, San Jose, Calif.). The distribution of cells in the G1 and S phases of the cell cycle was determined using MultiCycle AV software (Phoenix Flow Systems, San Diego, Calif.).
as §3
The effect of blends of xanthorrhizol and d-δ-tocotrienol were evaluated on the cell cycle distribution of murine B16 melanoma cells (FIG. 4). At 0-h as baseline, the percentages of cells in the G1, S, and G2 phases of cell cycle were 54.1±0.7%, 27.6±0.4%, and 18.3±0.8% (mean±SEM), respectively. Following a 24-h incubation […], these percentages were relatively stable for the control group (56.1±1.6%, 32.1±0.6% and 11.7±1.9% for G1, S and G2 phases, respectively).

In assay [3] the test system is murine B16 melanoma cells. As to conditions: McAnally, Gupta et al. 2007, read-out: previous reported IC50, concentration required to elicit 50% of growth inhibition; cited from earlier work.
Assay [4] concerns human DU145 prostate carcinoma cells. Description: Cell growth assay, human DU145 prostate carcinoma cells (CellTiter 96 Aqueous One, 72 h). The class given is cell-based. Particulars: for concentration achieving 90% of growth suppression: individual agent (FIG. 6). The method, then: as §1, §2
Human DU145 prostate carcinoma cells were cultured in Roswell Park Memorial Institute ([…]) medium supplemented with 10% Fetal Bovine Serum (FBS; Fisher Scientific, Houston, Tex.), 1% penicillin-streptomycin (Fisher Scientific), and 0.8% gentamicin (Fisher Scientific).

[5] abbreviates: 16.25 μmol/L xanthorrhizol, versus control.

Where two headings read alike, the source gives them in different places.

For the compound `CC(C)=CCC/C(C)=C/CC/C(C)=C/CC[C@]1(C)CCc2cc(O)cc(C)c2O1` [d-δ-tocotrienol], the “suppression of the growth of B16 cells” value in assay [1] (10 μmol/L d-δ-tocotrienol applied individually) is recorded as roughly 12%. In addition, in assay [1] (d-δ-tocotrienol 0-40 μmol/L), the “suppression of the proliferation of murine B16 melanoma cells” value is “concentration-dependent suppression”. In addition, the “percentage of cells at the G1 phase” value in assay [2] (5 μmol/L d-δ-tocotrienol) was 59.2±1.3%. Moreover, the IC50 in assay [3] was 14 µM. In addition, the “concentration achieving 90% of growth suppression” value in assay [4] (DU145 cells) is 32 µmol/L.
On to `CC(C)=CCC[C@@H](C)c1ccc(C)c(O)c1` [xanthorrhizol], for which, in assay [1] (16.25 μmol/L xanthorrhizol applied individually), the “suppression of the growth of B16 cells” value is recorded as “approximately 15%”. The IC50 in assay [1] (B16 cells, 48 h incubation, read-out: IC50, concentration required to elicit 50% of growth inhibition) was found to be 65 µM. Further, the “suppression of the proliferation of murine B16 melanoma cells” value in assay [1] (xanthorrhizol 0-200 μmol/L) is listed as “concentration-dependent suppression”. Further, in assay [2] (setting [5]), the “G1/S ratio, indicator of cell cycle arrest” value is on record as “significantly higher” and the “percentage of cells at the S phase” value was “decreased”. Also, the “percentage of cells at the G1 phase” value in assay [2] (16.25 μmol/L xanthorrhizol) worked out at 59.5±0.7%. Besides, the IC50 in assay [4] (DU145 cells, 72 h incubation, read-out: IC50, suppression of the proliferation of DU145 cells) is 101 µM. The “concentration achieving 90% of growth suppression” value in assay [4] (DU145 cells) was 182 µmol/L. In addition, in assay [4] (xanthorrhizol 0-200 μmol/L), the “suppression of the proliferation of human DU145 prostate carcinoma cells” value is “concentration-dependent suppression”.

Values taken from patent US10894021B2, “Compositions of xanthorrhizol and tocochromanol (tocotrienol), and methods of use” (American River Nutrition, LLC, priority 2017, dated 2021).
